In patent publication US8952024B2, “Herbicidal pyrimidone derivatives” (E I du Pont de Nemours and Company, priority 2009, dated 2015):

Assays:
Assay in all cases: Test B pre-/postemergence plant response
Format in all cases: in vivo
[1] = tested on: yellow nutsedge (Cyperus esculentus)
Method in brief: (§1)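 Each species received compound formulated in non-phytotoxic solvent with surfactant, either at planting into a loam and sand blend or as a foliar spray once plants reached 2 to 18 cm in peat-based medium. Plants stayed in the greenhouse 13 to 15 days before visual evaluation against controls, scored 0 (no effect) to 100 (complete control).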

wild oat (Avena fatua) = tested on: wild oat (Avena fatua)
Method in brief: as §1

kochia (Kochia scoparia) = tested on: kochia (Kochia scoparia)
Method in brief: as §1

[2] = tested on: green foxtail (Setaria viridis)
Method in brief: as §1

[3] = tested on: velvetleaf (Abutilon theophrasti)
Method in brief: as §1

[4] = tested on: cocklebur (Xanthium strumarium)
Method in brief: as §1

[5] = tested on: johnsongrass (Sorghum halepense)
Method in brief: as §1

corn (Zea mays) = tested on: corn (Zea mays)
Method in brief: as §1

[6] = tested on: large crabgrass (Digitaria sanguinalis)
Method in brief: as §1

[7] = tested on: goosegrass (Eleusine indica)
Method in brief: as §1

[8] = tested on: giant foxtail (Setaria faberii)
Method in brief: as §1

soybean (Glycine max) = tested on: soybean (Glycine max)
Method in brief: as §1

[9] = tested on: blackgrass (Alopecurus myosuroides)
Method in brief: as §1

[10] = tested on: downy bromegrass (Bromus tectorum)
Method in brief: as §1

[11] = tested on: Surinam grass (Brachiaria decumbens)
Method in brief: as §1

[12] = tested on: woolly cupgrass (Eriochloa villosa)
Method in brief: as §1

[13] = tested on: morningglory (Ipomoea coccinea)
Method in brief: as §1

[14] = 31 g ai/ha, postemergence, scale 0 to 100, 0 is no effect, 100 is complete control
[15] = 250 g ai/ha, Preemergence, 0 to 100 scale
[16] = Postemergence, 62 g ai/ha, scale 0 (no effect) to 100 (complete control), 13 to 15 days
[17] = Postemergence, 125 g ai/ha, visual rating after 13 to 15 days, scale 0 (no effect) to 100 (complete control)
[18] = Postemergence, 250 g ai/ha, scale 0 to 100 (0 no effect, 100 complete control)
[19] = Preemergence, 31 g ai/ha, scale 0 to 100 (0 no effect, 100 complete control)
[20] = Preemergence, 125 g ai/ha, 0 to 100 scale
[21] = Preemergence, 62 g ai/ha, scale 0 to 100, 0 no effect, 100 complete control

What does the source list for `Cc1ccc(F)c(-n2c(-c3ccccc3)ncc(C(=O)C3=C(O)CCCC3=O)c2=O)c1` [Compound 51]?
Plant response rating, Nutsedge, Yellow [1, 14]: 60; Plant response rating, Nutsedge, Yellow [1, 15]: 90; Plant response rating, Nutsedge, Yellow [1, 16]: 65; Plant response rating, Nutsedge, Yellow [1, 17]: 75; Plant response rating, Nutsedge, Yellow [1, 18]: 80; Plant response rating, Nutsedge, Yellow [1, 19]: 55; Nutsedge, Yellow plant response rating [1, 20]: 85; Plant response rating, Oat, Wild (wild oat (Avena fatua); [14]): 60; Plant response rating, Oat, Wild (wild oat (Avena fatua); [15]): 0; Plant response rating, Oat, Wild (wild oat (Avena fatua); [16]): 60; Plant response rating, Oat, Wild (wild oat (Avena fatua); [17]): 60; Plant response rating, Oat, Wild (wild oat (Avena fatua); [18]): 90; Plant response rating, Oat, Wild (wild oat (Avena fatua); [19]): 0; Oat, Wild plant response rating (wild oat (Avena fatua); [20]): 0; Plant response rating, Kochia (kochia (Kochia scoparia); [14]): 20; Plant response rating, Kochia (kochia (Kochia scoparia); [16]): 20; Plant response rating, Kochia (kochia (Kochia scoparia); [17]): 25; Plant response rating, Kochia (kochia (Kochia scoparia); [18]): 35; Plant response rating, Foxtail, Green [2, 14]: 85; Plant response rating, Foxtail, Green [2, 15]: 100; Plant response rating, Foxtail, Green [2, 16]: 95; Plant response rating, Foxtail, Green [2, 17]: 95; Plant response rating, Foxtail, Green [2, 18]: 100; Plant response rating, Foxtail, Green [2, 19]: 50; Plant response rating, Foxtail, Green [2, 21]: 50; Foxtail, Green plant response rating [2, 20]: 98; Plant response rating, Velvetleaf [3, 14]: 80; Plant response rating, Velvetleaf [3, 15]: 100; Plant response rating, Velvetleaf [3, 16]: 85; Plant response rating, Velvetleaf [3, 17]: 90; Plant response rating, Velvetleaf [3, 18]: 95; Plant response rating, Velvetleaf [3, 19]: 75; Velvetleaf plant response rating [3, 20]: 98; Plant response rating, Cocklebur [4, 14]: 85; Plant response rating, Cocklebur [4, 15]: 75; Plant response rating, Cocklebur [4, 16]: 85; Plant response rating, Cocklebur [4, 17]: 90; Plant response rating, Cocklebur [4, 18]: 90; Plant response rating, Cocklebur [4, 19]: 0; Plant response rating, Cocklebur [4, 21]: 0; Cocklebur plant response rating [4, 20]: 20; Plant response rating, Johnsongrass [5, 14]: 75; Plant response rating, Johnsongrass [5, 15]: 80; Plant response rating, Johnsongrass [5, 16]: 75; Plant response rating, Johnsongrass [5, 17]: 85; Plant response rating, Johnsongrass [5, 18]: 98; Plant response rating, Johnsongrass [5, 19]: 0; Plant response rating, Johnsongrass [5, 21]: 5; Johnsongrass plant response rating [5, 20]: 75; Plant response rating, Corn (corn (Zea mays); [14]): 75; Plant response rating, Corn (corn (Zea mays); [15]): 0; Plant response rating, Corn (corn (Zea mays); [16]): 80; Plant response rating, Corn (corn (Zea mays); [17]): 80; Plant response rating, Corn (corn (Zea mays); [18]): 85; Plant response rating, Corn (corn (Zea mays); [19]): 0; Plant response rating, Corn (corn (Zea mays); [21]): 0; Corn plant response rating (corn (Zea mays); [20]): 0; Plant response rating, Crabgrass, Large [6, 14]: 80; Plant response rating, Crabgrass, Large [6, 15]: 100; Plant response rating, Crabgrass, Large [6, 16]: 85; Plant response rating, Crabgrass, Large [6, 17]: 85; Plant response rating, Crabgrass, Large [6, 18]: 90; Plant response rating, Crabgrass, Large [6, 19]: 75; Plant response rating, Crabgrass, Large [6, 21]: 98; Crabgrass, Large plant response rating [6, 20]: 100; Plant response rating, Goosegrass [7, 14]: 75; Plant response rating, Goosegrass [7, 15]: 100; Plant response rating, Goosegrass [7, 16]: 80; Plant response rating, Goosegrass [7, 17]: 85; Plant response rating, Goosegrass [7, 18]: 85; Plant response rating, Goosegrass [7, 19]: 98; Goosegrass plant response rating [7, 20]: 100; Plant response rating, Foxtail, Giant [8, 14]: 80; Plant response rating, Foxtail, Giant [8, 15]: 75; Plant response rating, Foxtail, Giant [8, 16]: 80; Plant response rating, Foxtail, Giant [8, 17]: 85; Plant response rating, Foxtail, Giant [8, 18]: 85; Plant response rating, Foxtail, Giant [8, 19]: 0; Plant response rating, Foxtail, Giant [8, 21]: 45; Foxtail, Giant plant response rating [8, 20]: 50; Plant response rating, Soybean (soybean (Glycine max); [14]): 85; Plant response rating, Soybean (soybean (Glycine max); [15]): 85; Plant response rating, Soybean (soybean (Glycine max); [16]): 90; Plant response rating, Soybean (soybean (Glycine max); [17]): 95; Plant response rating, Soybean (soybean (Glycine max); [18]): 95; Plant response rating, Soybean (soybean (Glycine max); [19]): 0; Soybean plant response rating (soybean (Glycine max); [20]): 80; Plant response rating, Blackgrass [9, 14]: 0; Plant response rating, Blackgrass [9, 15]: 20; Plant response rating, Blackgrass [9, 16]: 30; Plant response rating, Blackgrass [9, 17]: 50; Plant response rating, Blackgrass [9, 18]: 55; Plant response rating, Blackgrass [9, 19]: 0; Plant response rating, Blackgrass [9, 21]: 0; Blackgrass plant response rating [9, 20]: 10; Plant response rating, Bromegrass, Downy [10, 14]: 50; Plant response rating, Bromegrass, Downy [10, 15]: 40; Plant response rating, Bromegrass, Downy [10, 16]: 50; Plant response rating, Bromegrass, Downy [10, 17]: 55; Plant response rating, Bromegrass, Downy [10, 18]: 60; Plant response rating, Bromegrass, Downy [10, 19]: 0; Plant response rating, Bromegrass, Downy [10, 21]: 0; Bromegrass, Downy plant response rating [10, 20]: 5; Plant response rating, Surinam Grass [11, 14]: 80; Plant response rating, Surinam Grass [11, 15]: 100; Plant response rating, Surinam Grass [11, 16]: 85; Plant response rating, Surinam Grass [11, 17]: 90; Plant response rating, Surinam Grass [11, 18]: 90; Plant response rating, Surinam Grass [11, 19]: 95; Surinam Grass plant response rating [11, 20]: 98; Plant response rating, Cupgrass, Woolly [12, 14]: 75; Plant response rating, Cupgrass, Woolly [12, 15]: 85; Plant response rating, Cupgrass, Woolly [12, 16]: 75; Plant response rating, Cupgrass, Woolly [12, 17]: 80; Plant response rating, Cupgrass, Woolly [12, 18]: 90; Plant response rating, Cupgrass, Woolly [12, 19]: 10; Plant response rating, Cupgrass, Woolly [12, 21]: 35; Cupgrass, Woolly plant response rating [12, 20]: 75; Plant response rating, Morningglory [13, 14]: 75; Plant response rating, Morningglory [13, 15]: 70; Plant response rating, Morningglory [13, 16]: 80; Plant response rating, Morningglory [13, 17]: 90; Plant response rating, Morningglory [13, 18]: 100; Plant response rating, Morningglory [13, 19]: 0; Plant response rating, Morningglory [13, 21]: 20; Morningglory plant response rating [13, 20]: 20
